Measured values as given in patent US20070128217A1 (priority 2003, published 2007).

Assays:
[1] = test system: recombinant human anti-SARS-CoV antibody 03-018; assay type: binding; set-up: Binding of antibody 03-018 to linear peptides of the N protein of SARS-CoV Urbani / Binding of antibody 03-018 to looped/cyclic peptides of the N protein of SARS-CoV Urbani: unit not given here
[2] = test system: antibodies in sera from SARS patients (sera 1a, 1b, 2, 6, 37, 62, London, SARS-yellow, SARS-green); assay type: binding, human; set-up: Binding of serum 6 to linear peptides of protein X1 of SARS-CoV Urbani / Binding of serum 37 to linear peptides of protein X1 of SARS-CoV Urbani / Binding of serum 6 to looped/cyclic peptide (PEPSCAN-ELISA) / Binding of serum 37 to looped/cyclic peptide (PEPSCAN-ELISA) / Binding of serum 37 to looped/cyclic peptides of protein X1 of SARS-CoV Urbani / Binding of serum 6 to linear peptides of protein X2 / Binding of serum 37 to linear peptides of protein X2 / Binding of serum 37 to looped/cyclic peptides of protein X2 of SARS-CoV Urbani / Binding of serum 6 to linear peptides of protein M of SARS-CoV Urbani / Binding of serum 37 to linear peptides of protein M of SARS-CoV Urbani / Binding of serum 6 to looped/cyclic peptides of protein M of SARS-CoV Urbani / Binding of serum 37 to looped/cyclic peptides of protein M of SARS-CoV Urbani / Binding of serum 6 to linear peptides of protein X3 of SARS-CoV Urbani / Binding of serum 37 to linear peptides of protein X3 of SARS-CoV Urbani / Binding of serum 37 to looped/cyclic peptides of protein X3 of SARS-CoV Urbani / Binding of serum 6 to linear peptides of protein X4 of SARS-CoV Urbani / Binding of serum 37 to linear peptides of protein X4 of SARS-CoV Urbani / Binding of serum 37 to looped/cyclic peptides of protein X4 of SARS-CoV Urbani / Binding of serum 6 to linear peptides of protein X5 of SARS-CoV Urbani / Binding of serum 37 to linear peptides of protein X5 of SARS-CoV Urbani / Binding of serum 37 to looped/cyclic peptides of protein X5 of SARS-CoV Urbani / Binding of serum 6 to linear peptides of protein N of SARS-CoV Urbani / Binding of serum 37 to linear peptides of protein N of SARS-CoV Urbani / Binding of serum 6 to linear peptide (PEPSCAN-ELISA) / Binding of serum 1a to looped/cyclic peptides of protein N of SARS-CoV Urbani / Binding of serum 1b to looped/cyclic peptides of protein N of SARS-CoV Urbani / Binding of serum 2 to looped/cyclic peptides of protein N of SARS-CoV Urbani / Binding of serum 6 to looped/cyclic peptides of protein N of SARS-CoV Urbani / Binding of serum 37 to looped/cyclic peptides of protein N of SARS-CoV Urbani / Binding of serum 62 to looped/cyclic peptides of protein N of SARS-CoV Urbani / Binding of serum London to looped/cyclic peptides of protein N of SARS-CoV Urbani / Binding of serum SARS-green to looped/cyclic peptides of protein N of SARS-CoV Urbani: unit not given here
[3] = test system: rabbit serum obtained by immunizing a rabbit with the SARS-CoV strain Frankfurt 1; assay type: binding; set-up: Binding of a rabbit serum to linear peptides / Binding of a rabbit serum to looped peptides / Rabbit serum linear peptides / Rabbit serum looped peptides / Binding of a rabbit serum to linear peptides of protein N of SARS-CoV Urbani (Rabbit serum linear peptides) / Binding of a rabbit serum to looped/cyclic peptides of protein N of SARS-CoV Urbani (Rabbit serum looped peptides): unit not given here
[4] = test system: control sera (pooled serum of ten healthy LUMC hospital workers; commercial negative donor pooled serum from the Dutch bloodbank); assay type: binding, human; set-up: Binding of Control serum LUMC to linear peptides / Binding of Control serum Blood-bank to linear peptides / Binding of Control serum LUMC to looped peptides / Binding of Control Serum Blood-Bank to Looped peptides / Binding of Control serum LUMC to linear peptides of the protein M of SARS-CoV Urbani / Binding of Control serum Blood-bank to linear peptides of the protein M of SARS-CoV Urbani / Binding of Control serum LUMC to looped peptides of the protein M of SARS-CoV Urbani / Binding of Control Serum Blood-Bank to Looped peptides of the protein M of SARS-CoV Urbani: unit not given here

## ALALLLLDRLNQLES
[1]
  Binding of antibody 03-018 to linear peptides of the N protein of SARS-CoV Urbani: 0.1
  Binding of antibody 03-018 to looped/cyclic peptides of the N protein of SARS-CoV Urbani: 0.3
[2]
  Binding of serum 1a to linear peptide (PEPSCAN-ELISA): 0.3
  Binding of serum 1a to looped/cyclic peptides of protein N of SARS-CoV Urbani: 0.4
  Binding of serum 1b to linear peptide (PEPSCAN-ELISA): 0.2
  Binding of serum 1b to looped/cyclic peptides of protein N of SARS-CoV Urbani: 0.2
  Binding of serum 2 to linear peptide (PEPSCAN-ELISA): 0.1
  Binding of serum 2 to looped/cyclic peptides of protein N of SARS-CoV Urbani: 0.4
  Binding of serum 6 to linear peptide (PEPSCAN-ELISA): 0.2
  Binding of serum 6 to looped/cyclic peptides of protein N of SARS-CoV Urbani: 0.2
  Binding of serum 37 to linear peptide (PEPSCAN-ELISA): 0.5
  Binding of serum 37 to looped/cyclic peptides of protein N of SARS-CoV Urbani: 0.8
  Binding of serum 62 to linear peptide (PEPSCAN-ELISA): 0.6
  Binding of serum 62 to looped/cyclic peptides of protein N of SARS-CoV Urbani: 0.7
  Binding of serum London to linear peptide (PEPSCAN-ELISA): 0.5
  Binding of serum London to looped/cyclic peptides of protein N of SARS-CoV Urbani: 0.5
  Binding of serum SARS-green to linear peptide (PEPSCAN-ELISA): 0.4
  Binding of serum SARS-green to looped/cyclic peptides of protein N of SARS-CoV Urbani: 0.4
  Binding of serum SARS-yellow to linear peptide (PEPSCAN-ELISA): 0.5
  Binding of serum SARS-yellow to looped/cyclic peptides of protein N of SARS-CoV Urbani: 0.5
[3]
  Binding of a rabbit serum to linear peptides of protein N of SARS-CoV Urbani (Rabbit serum linear peptides): 0.2
  Binding of a rabbit serum to looped/cyclic peptides of protein N of SARS-CoV Urbani (Rabbit serum looped peptides): 0.6
[4]
  Binding of Control Serum Blood-Bank to Looped peptides: 0.8
  Binding of Control serum Blood-bank to linear peptides: 0.7
  Binding of Control serum LUMC to linear peptides: 0.7
  Binding of Control serum LUMC to looped peptides: 0.8

## APRITFGGPTDSTDN
[1]
  Recognition of the peptide by antibody 03-018: recognized
[2]
  Binding of serum 1a to linear peptides of protein N of SARS-CoV Urbani: 0.2
  Binding of serum 1a to looped/cyclic peptides of protein N of SARS-CoV Urbani: 0.4
  Binding of serum 1b to linear peptides of protein N of SARS-CoV Urbani: 0.2
  Binding of serum 1b to looped/cyclic peptides of protein N of SARS-CoV Urbani: 0.2
  Binding of serum 2 to linear peptides of protein N of SARS-CoV Urbani: 0.2
  Binding of serum 2 to looped/cyclic peptides of protein N of SARS-CoV Urbani: 0.3
  Binding of serum 6 to linear peptides of protein N of SARS-CoV Urbani: 0.2
  Binding of serum 6 to looped/cyclic peptides of protein N of SARS-CoV Urbani: 0.2
  Binding of serum 37 to linear peptides of protein N of SARS-CoV Urbani: 0.8
  Binding of serum 37 to looped/cyclic peptides of protein N of SARS-CoV Urbani: 0.6
  Binding of serum 62 to linear peptides of protein N of SARS-CoV Urbani: 0.7
  Binding of serum 62 to looped/cyclic peptides of protein N of SARS-CoV Urbani: 0.6
  Binding of serum London to linear peptides of protein N of SARS-CoV Urbani: 0.6
  Binding of serum London to looped/cyclic peptides of protein N of SARS-CoV Urbani: 0.2
  Binding of serum SARS-green to linear peptides of protein N of SARS-CoV Urbani: 0.6
  Binding of serum SARS-green to looped/cyclic peptides of protein N of SARS-CoV Urbani: 0.6
  Binding of serum SARS-yellow to linear peptides of protein N of SARS-CoV Urbani: 0.3
  Binding of serum SARS-yellow to looped/cyclic peptides of protein N of SARS-CoV Urbani: 0.4
[3]
  Binding of a rabbit serum to linear peptides of protein N of SARS-CoV Urbani (Rabbit serum linear peptides): 0.2
  Binding of a rabbit serum to looped/cyclic peptides of protein N of SARS-CoV Urbani (Rabbit serum looped peptides): 0.6
[4]
  Binding of Control Serum Blood-Bank to Looped peptides: 0.6
  Binding of Control serum Blood-bank to linear peptides: 0.6
  Binding of Control serum LUMC to linear peptides: 0.5
  Binding of Control serum LUMC to looped peptides: 0.6

## APSASAFFGMSRIGM
[1]
  Binding of antibody 03-018 to linear peptides of the N protein of SARS-CoV Urbani: 0.1
  Binding of antibody 03-018 to looped/cyclic peptides of the N protein of SARS-CoV Urbani: 0.2
[2]
  Binding of serum 1a to linear peptides of protein N of SARS-CoV Urbani: 0.2
  Binding of serum 1a to looped/cyclic peptides of protein N of SARS-CoV Urbani: 0.4
  Binding of serum 1b to linear peptides of protein N of SARS-CoV Urbani: 0.1
  Binding of serum 1b to looped/cyclic peptides of protein N of SARS-CoV Urbani: 0.3
  Binding of serum 2 to linear peptides of protein N of SARS-CoV Urbani: 0.2
  Binding of serum 2 to looped/cyclic peptides of protein N of SARS-CoV Urbani: 0.7
  Binding of serum 6 to linear peptides of protein N of SARS-CoV Urbani: 0.1
  Binding of serum 6 to looped/cyclic peptides of protein N of SARS-CoV Urbani: 0.4
  Binding of serum 37 to linear peptides of protein N of SARS-CoV Urbani: 0.5
  Binding of serum 37 to looped/cyclic peptides of protein N of SARS-CoV Urbani: 0.7
  Binding of serum 62 to linear peptides of protein N of SARS-CoV Urbani: 0.5
  Binding of serum 62 to looped/cyclic peptides of protein N of SARS-CoV Urbani: 0.9
  Binding of serum London to linear peptides of protein N of SARS-CoV Urbani: 0.6
  Binding of serum London to looped/cyclic peptides of protein N of SARS-CoV Urbani: 2.0
  Binding of serum SARS-green to linear peptides of protein N of SARS-CoV Urbani: 0.2
  Binding of serum SARS-green to looped/cyclic peptides of protein N of SARS-CoV Urbani: 0.5
  Binding of serum SARS-yellow to linear peptides of protein N of SARS-CoV Urbani: 0.4
  Binding of serum SARS-yellow to looped/cyclic peptides of protein N of SARS-CoV Urbani: 0.6
[3]
  Binding of a rabbit serum to linear peptides of protein N of SARS-CoV Urbani (Rabbit serum linear peptides): 0.1
  Binding of a rabbit serum to looped/cyclic peptides of protein N of SARS-CoV Urbani (Rabbit serum looped peptides): 0.4
[4]
  Control Serum Blood-Bank Looped peptides: 0.8
  Control serum Blood-bank linear peptides: 0.7
  Control serum LUMC linear peptides: 0.5
  Control serum LUMC looped peptides: 0.6

## AQFAPSASAFFGMSR
[1]
  Binding of antibody 03-018 to linear peptides of the N protein of SARS-CoV Urbani: 0.1
  Binding of antibody 03-018 to looped/cyclic peptides of the N protein of SARS-CoV Urbani: 0.3
[2]
  Binding of serum 1a to linear peptides of protein N of SARS-CoV Urbani: 0.2
  Binding of serum 1a to looped/cyclic peptides of protein N of SARS-CoV Urbani: 0.3
  Binding of serum 1b to linear peptides of protein N of SARS-CoV Urbani: 0.1
  Binding of serum 1b to looped/cyclic peptides of protein N of SARS-CoV Urbani: 0.2
  Binding of serum 2 to linear peptides of protein N of SARS-CoV Urbani: 0.1
  Binding of serum 2 to looped/cyclic peptides of protein N of SARS-CoV Urbani: 0.6
  Binding of serum 6 to linear peptides of protein N of SARS-CoV Urbani: 0.1
  Binding of serum 6 to looped/cyclic peptides of protein N of SARS-CoV Urbani: 0.5
  Binding of serum 37 to linear peptides of protein N of SARS-CoV Urbani: 0.5
  Binding of serum 37 to looped/cyclic peptides of protein N of SARS-CoV Urbani: 0.8
  Binding of serum 62 to linear peptides of protein N of SARS-CoV Urbani: 0.4
  Binding of serum 62 to looped/cyclic peptides of protein N of SARS-CoV Urbani: 0.6
  Binding of serum London to linear peptides of protein N of SARS-CoV Urbani: 0.4
  Binding of serum London to looped/cyclic peptides of protein N of SARS-CoV Urbani: 2.1
  Binding of serum SARS-green to linear peptides of protein N of SARS-CoV Urbani: 0.1
  Binding of serum SARS-green to looped/cyclic peptides of protein N of SARS-CoV Urbani: 0.2
  Binding of serum SARS-yellow to linear peptides of protein N of SARS-CoV Urbani: 0.6
  Binding of serum SARS-yellow to looped/cyclic peptides of protein N of SARS-CoV Urbani: 0.4
[3]
  Binding of a rabbit serum to linear peptides of protein N of SARS-CoV Urbani (Rabbit serum linear peptides): 0.1
  Binding of a rabbit serum to looped/cyclic peptides of protein N of SARS-CoV Urbani (Rabbit serum looped peptides): 0.7
[4]
  Control Serum Blood-Bank Looped peptides: 0.8
  Control serum Blood-bank linear peptides: 0.7
  Control serum LUMC linear peptides: 0.5
  Control serum LUMC looped peptides: 0.6
